Values of other authors, collected in patent publication US7713983B2 (priority 2003, dated 2010).

How the values were obtained:
neuropathic pain = details: in vivo
NaV1.3 = NaV1.3 (Homo sapiens, UniProt Q9NY46); details: read-out: TTX IC50
Sequence of NaV1.3 (Q9NY46 whole entry, looked up): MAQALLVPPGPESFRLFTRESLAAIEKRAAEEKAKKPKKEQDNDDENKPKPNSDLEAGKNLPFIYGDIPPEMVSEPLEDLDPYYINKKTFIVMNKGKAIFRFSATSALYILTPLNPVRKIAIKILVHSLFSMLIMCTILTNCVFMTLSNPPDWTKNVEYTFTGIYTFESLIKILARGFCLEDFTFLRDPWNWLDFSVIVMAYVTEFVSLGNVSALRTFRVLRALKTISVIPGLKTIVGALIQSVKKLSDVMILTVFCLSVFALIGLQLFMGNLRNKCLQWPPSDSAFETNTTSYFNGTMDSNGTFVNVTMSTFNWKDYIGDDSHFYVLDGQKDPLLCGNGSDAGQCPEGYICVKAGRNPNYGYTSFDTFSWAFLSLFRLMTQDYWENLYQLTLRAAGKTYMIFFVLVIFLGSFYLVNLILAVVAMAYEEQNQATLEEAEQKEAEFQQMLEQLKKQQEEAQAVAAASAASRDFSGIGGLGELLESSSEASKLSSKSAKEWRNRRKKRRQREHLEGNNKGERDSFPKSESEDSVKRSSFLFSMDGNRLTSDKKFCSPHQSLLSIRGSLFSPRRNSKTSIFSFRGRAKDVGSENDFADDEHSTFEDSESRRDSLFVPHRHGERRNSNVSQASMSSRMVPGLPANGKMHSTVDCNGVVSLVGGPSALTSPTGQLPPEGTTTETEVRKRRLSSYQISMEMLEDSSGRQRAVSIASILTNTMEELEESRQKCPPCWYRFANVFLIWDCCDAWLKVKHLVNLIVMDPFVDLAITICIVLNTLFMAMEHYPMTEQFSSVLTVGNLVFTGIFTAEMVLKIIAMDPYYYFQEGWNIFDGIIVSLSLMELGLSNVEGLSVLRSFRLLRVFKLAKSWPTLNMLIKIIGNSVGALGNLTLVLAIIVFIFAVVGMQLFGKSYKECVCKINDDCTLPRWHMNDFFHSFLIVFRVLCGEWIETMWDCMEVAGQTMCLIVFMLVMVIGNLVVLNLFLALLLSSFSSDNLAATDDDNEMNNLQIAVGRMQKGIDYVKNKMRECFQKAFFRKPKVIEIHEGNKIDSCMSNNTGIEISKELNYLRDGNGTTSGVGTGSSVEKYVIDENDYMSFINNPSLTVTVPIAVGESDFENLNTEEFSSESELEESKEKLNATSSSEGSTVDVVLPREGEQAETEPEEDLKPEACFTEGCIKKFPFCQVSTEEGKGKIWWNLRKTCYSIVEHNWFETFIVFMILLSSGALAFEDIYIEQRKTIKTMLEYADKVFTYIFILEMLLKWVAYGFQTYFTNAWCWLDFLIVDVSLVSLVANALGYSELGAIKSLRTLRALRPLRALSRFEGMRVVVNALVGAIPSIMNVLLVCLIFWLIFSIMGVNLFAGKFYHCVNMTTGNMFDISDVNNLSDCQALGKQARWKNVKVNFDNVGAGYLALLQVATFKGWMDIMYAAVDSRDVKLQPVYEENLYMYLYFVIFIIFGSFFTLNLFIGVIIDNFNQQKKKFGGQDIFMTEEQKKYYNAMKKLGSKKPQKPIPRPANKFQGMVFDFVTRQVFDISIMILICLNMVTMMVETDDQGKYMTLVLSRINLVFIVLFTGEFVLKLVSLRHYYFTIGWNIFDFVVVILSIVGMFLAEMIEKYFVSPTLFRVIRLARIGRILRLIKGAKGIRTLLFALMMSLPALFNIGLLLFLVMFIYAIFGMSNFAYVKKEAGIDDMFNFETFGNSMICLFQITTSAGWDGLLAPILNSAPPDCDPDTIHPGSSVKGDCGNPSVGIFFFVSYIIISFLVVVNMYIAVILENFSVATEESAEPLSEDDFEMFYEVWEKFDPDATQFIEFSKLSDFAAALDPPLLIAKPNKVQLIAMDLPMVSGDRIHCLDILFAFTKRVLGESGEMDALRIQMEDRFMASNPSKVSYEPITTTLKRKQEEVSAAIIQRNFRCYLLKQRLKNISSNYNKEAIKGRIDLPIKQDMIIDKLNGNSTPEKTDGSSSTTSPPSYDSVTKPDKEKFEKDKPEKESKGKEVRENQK

SMILES | share of patients in whom it works (neuropathic pain) | IC50 (NaV1.3)
NCC1(CC(=O)O)CCCCC1 [Gabapentin] | 60% | 
NC1=N[C@H](O)[C@H]2[C@H]3O[C@]4(O)O[C@@H]([C@@H](O)[C@@]2(N1)[C@@H]4O)[C@]3(O)CO [TTX, tetrodotoxin] |  | 15 nM
